Columns and labels:
retinal ganglion cells = assay: Viability of retinal ganglion cells (RGCs) in TTT laser optic nerve injury (glaucoma) model; type: in vivo, C57BL/6 mice; conditions: TTT laser model mice, rodent chow containing 50 mg/kg, fed 2 weeks; RGCs labeled day 13, counted 24 h later; FIG. 1
Method: (§1) Group 3: Experimental group (n=7) fed with a rodent chow containing 50 mg/kg of a pharmaceutical composition including compound 1 of experimental example 1 as an active ingredient, as a glaucoma model.
(§2) 8-week-old C57BL/6 mice were anesthetized with an intraperitoneal injection of a mixture of ketamine (100 mg/kg) and xylazine (5 mg/kg), and a mydriatic agent was applied to dilate the pupils of the eyes. Thereafter, an application of transpupillary thermotherapy (TTT), 200 spot size, 50-mW power, and 30-sec duration, was performed over the optic disc of an eye. The aiming beam of the laser was focused on the centre of the optic disc, a viscoelastic material was instilled, a cover glass was placed, and laser beams were irradiated while confirming the optic disc through the dilated pupils by naked eyes. The thus-established optic nerve injury model will be hereinafter referred to as a TTT laser model. […]
Twenty-four hours after labeling, the animals were euthanized and the eyes were enucleated and fixed for 2 hours with neutral formalin. […] Under a fluorescence microscope (×400), the fluorescently labeled retinal ganglion cells were counted in 12 regions in the four quadrants of each retina approximately 0.5 mm, 1 mm and 1.5 mm from the edge of the optic disc. […]

axons of the optic nerve = assay: Axonal viability (Bodian staining) in TTT laser optic nerve injury (glaucoma) model; type: in vivo, C57BL/6 mice; conditions: TTT laser model mice, rodent chow containing 50 mg/kg; day 14 after laser irradiation; FIG. 2
Method: as §1, §2
The retinal cross-section and the optic nerve cross-section were treated with a silver solution for 48 hours, and color development was carried out using a reducing agent, followed by toning and fixation. […] In order to evaluate the axonal viability, the stained axons were counted with a light microscope (×1000), in 20 regions at intervals of 10 in the four quadrants of each retina, from the center of the optic nerve tissue section slide. […]

Compound: CC1(C)CCC2=C(O1)c1ccccc1C(=O)C2=O [Compound 1, β-lapachone]
- density of retinal ganglion cells relative to the TTT control group (Group 2) (retinal ganglion cells): ≥ 1.7 fold
- axonal density relative to the TTT control group (Group 2) (axons of the optic nerve): ≥ 1.5 fold

From patent publication US20110020448A1, “PHARMACEUTICAL COMPOSITION FOR THE TREATMENT AND PREVENTION OF GLAUCOMA” (MAZENCE, INC., priority 2007, published 2011)
